In patent publication US9051310B2, “Nicotinamide derivative or salt thereof” (FUJIFILM Corporation, priority 2011, dated 2015):

Legend:
[1] = test system: THP-1 cells (TNFα secretion on human IgG-coated plate); assay: TNFα generation assay; type: cell-based; conditions: IFN-γ differentiated THP-1 cells, 7 hours, AlphaLISA, read-out: IC50 of TNFα generation inhibitory activity
In short: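 Secreted TNFα was measured by AlphaLISA after 7 h of culture on human IgG-coated wells (coating at 10 μg/ml), with 5×10^4 cells/well. Before plating, the cells had been treated with compound for 30 min at room temperature. The cells were macrophage-like THP-1, produced by a 2-day exposure to 10 ng/ml IFN-γ.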

[2] = biological target: T1, glutathione S-transferase (GST)-linked full-length human Syk protein (Homo sapiens, UniProt P43405); assay: Syk enzyme assay; type: biochemical; conditions: 0.83 nM Syk, time-resolved fluorescence; read-out: IC50 of Syk-inhibitory activity
T1 construct: glutathione S-transferase (GST)-linked full-length human Syk protein; purchased Carna Biosciences; host or cells: Baculovirus expression system
In short: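 Phosphotyrosine on a biotin-peptide substrate (0.5 μM) was read by time-resolved fluorescence at 615 and 665 nm with Eu-anti-pTyr antibody and APC-streptavidin after 1 h EDTA stop.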

[3] = test system: THP-1 cells (phagocytosis of opsonized Escherichia coli); assay: Antibody-dependent phagocytosis assay; type: cell-based; conditions: Homo sapiens; IFNγ differentiated THP-1 cells, opsonized pHrodo Escherichia coli, 3 hours; read-out: IC50 upon phagocytosis inhibition
Procedure: THP-1 cells (2×10^5 cells/ml), which were human monocytoid cells, were cultured in the presence of 10 ng/ml IFNγ for 2 days, and they were induced to differentiate into macrophage-like cells. The differentiation-induced THP-1 cells were recovered, and the cells (5×10^4 cells/well) were then allowed to react with a predetermined concentration of test compound at room temperature for 30 minutes. Thereafter, Escherichia coli (Life Technologies) labeled with a pH-sensitive dye (pHrodo) was subjected to opsonization using an anti-Escherichia coli antibody (Life Technologies). Then, the resultant was added to the THP-1 cells obtained above, followed by incubation at 37° C. for 3 hours. Opsonized Escherichia coli and cell-permeable fluorescent dye (Calcein AM) were simultaneously added thereto, followed by quantitative determination of phagocytosis of opsonized Escherichia coli in viable cells using an IN Cell Analyzer.

| SMILES | IC50 [1] | IC50 [2] | IC50 [3] |
| --- | --- | --- | --- |
| CC[C@@H](Nc1nc(Nc2ccc3c(c2)c(N(C)C)nn3C)c(C(N)=O)cc1F)[C@H](C)N [Example 2-4] | 65 to 130 nM | < 10 nM | 1000 to 3000 nM |
| C[C@H](N)[C@@H](CC1CC1)Nc1nc(Nc2cccc3c2cnn3CC(F)F)c(C(N)=O)cc1F [Example 2-21, 6-(((2R,3S)-3-amino-1-cyclopropylbutan-2-yl)amino)-2-((1-(2,2-difluoroethyl)-1H-indazol-4-yl)amino)-5-fluoronicotinamide] | 130 to 200 nM | < 10 nM | < 1000 nM |
| CC(C)C[C@@H](Nc1nc(Nc2cccc3c2cnn3CC(F)F)c(C(N)=O)cc1F)[C@H](C)N [Example 2-22, 6-(((2S,3R)-2-amino-5-methylhexan-3-yl)amino)-2-((1-(2,2-difluoroethyl)-1H-indazol-4-yl)amino)-5-fluoronicotinamide] | 130 to 200 nM | < 10 nM | < 1000 nM |
| CC[C@@H](Nc1nc(Nc2cccc3c2cnn3CC(F)F)c(C(N)=O)cc1F)[C@H](C)N [Example 2-23, 6-(((2S,3R)-2-aminopentan-3-yl)amino)-2-((1-(2,2-difluoroethyl)-1H-indazol-4-yl)amino)-5-fluoronicotinamide] | 65 to 130 nM | < 10 nM | < 1000 nM |
| CC(C)C[C@@H](Nc1nc(Nc2cnc3c(c2)c(N(C)C)nn3C)c(C(N)=O)cc1F)[C@H](C)N [Example 2-292, 6-(((2S,3R)-2-amino-5-methylhexan-3-yl)amino)-2-((3-(dimethylamino)-1-methyl-1H-pyrazolo[3,4-b]pyridin-5-yl)amino)-5-fluoronicotinamide] |  | < 10 nM | 1000 to 3000 nM |
| CCC[C@@H](Nc1nc(Nc2cccc3c2cnn3CCOC)c(C(N)=O)cc1F)[C@H](C)N [Example 2-305, 6-(((2S,3R)-2-aminohexan-3-yl)amino)-5-fluoro-2-((1-(2-methoxyethyl)-1H-indazol-4-yl)amino)nicotinamide] |  | < 10 nM | 1000 to 3000 nM |
| C[C@H](N)[C@H](Nc1nc(Nc2ccc3ncccc3c2)c(C(N)=O)cc1F)c1ccccc1 [Example 2-312, 6-(((1R,2S)-2-amino-1-phenylpropyl)amino)-5-fluoro-2-(quinolin-6-ylamino)nicotinamide] |  | < 10 nM | < 1000 nM |
| CC[C@@H](Nc1nc(Nc2cncc3c2cnn3CC)c(C(N)=O)cc1F)[C@H](C)N [Example 2-318, 6-(((2S,3R)-2-aminopentan-3-yl)amino)-2-((1-ethyl-1H-pyrazolo[3,4-c]pyridin-4-yl)amino)-5-fluoronicotinamide] |  | < 10 nM | 1000 to 3000 nM |
| CCn1ncc2c(Nc3nc(N[C@H](COC)[C@H](C)N)c(F)cc3C(N)=O)cncc21 [Example 2-323, 6-(((2S,3S)-3-amino-1-methoxybutan-2-yl)amino)-2-((1-ethyl-1H-pyrazolo[3,4-c]pyridin-4-yl)amino)-5-fluoronicotinamide] |  | 10 to 50 nM | 1000 to 3000 nM |
| CCOC[C@@H](Nc1nc(Nc2cncc3c2cnn3CC)c(C(N)=O)cc1F)[C@H](C)N [Example 2-324, 6-(((2S,3S)-3-amino-1-ethoxybutan-2-yl)amino)-2-((1-ethyl-1H-pyrazolo[3,4-c]pyridin-4-yl)amino)-5-fluoronicotinamide] |  | 10 to 50 nM | < 1000 nM |
| CCC[C@@H](Nc1nc(Nc2ccc3c(c2)c(OC(F)F)nn3C)c(C(N)=O)cc1F)[C@H](C)N [Example 2-349, 6-(((2S,3R)-2-aminohexan-3-yl)amino)-2-((3-(difluoromethoxy)-1-methyl-1H-indazol-5-yl)amino)-5-fluoronicotinamide] |  | < 10 nM | 1000 to 3000 nM |
| NC[C@@H](Cc1ccccc1)Nc1nc(Nc2cnc(N3CCOCC3)c(F)c2)c(C(N)=O)cc1F [Example 2-365, (R)-6-((1-amino-3-phenylpropan-2-yl)amino)-5-fluoro-2-((5-fluoro-6-morpholinopyridin-3-yl)amino)nicotinamide] |  | 50 to 100 nM | < 1000 nM |
| NC(=O)c1cc(F)c(N[C@@H]2CCCC[C@@H]2N)nc1Nc1cncc2c1cnn2CC(F)F [Example 2-393, 6-(((1R,2S)-2-aminocyclohexyl)amino)-2-((1-(2,2-difluoroethyl)-1H-pyrazolo[3,4-c]pyridin-4-yl)amino)-5-fluoronicotinamide] |  | < 10 nM | 1000 to 3000 nM |
| NC(=O)c1cc(F)c(N[C@@H]2CCOC[C@@H]2N)nc1Nc1cncc2c1cnn2CC(F)F [Example 2-394, 6-(((3R,4R)-3-aminotetrahydro-2H-pyran-4-yl)amino)-2-((1-(2,2-difluoroethyl)-1H-pyrazolo[3,4-c]pyridin-4-yl)amino)-5-fluoronicotinamide] |  | < 10 nM | 3000 to 6000 nM |
| CCC[C@@H](Nc1nc(Nc2cncc3c2cnn3CC(F)F)c(C(N)=O)cc1F)[C@H](C)N [Example 2-397, 6-(((2S,3R)-2-aminohexan-3-yl)amino)-2-((1-(2,2-difluoroethyl)-1H-pyrazolo[3,4-c]pyridin-4-yl)amino)-5-fluoronicotinamide] |  | < 10 nM | 1000 to 3000 nM |
| CCCC[C@@H](Nc1nc(Nc2cncc3c2cnn3CC(F)F)c(C(N)=O)cc1F)[C@H](C)N [Example 2-399, 6-(((2S,3R)-2-aminoheptan-3-yl)amino)-2-((1-(2,2-difluoroethyl)-1H-pyrazolo[3,4-c]pyridin-4-yl)amino)-5-fluoronicotinamide] |  | < 10 nM | 1000 to 3000 nM |
| CCn1ncc2c(Nc3nc(N[C@@H](CN)CC(C)C)c(F)cc3C(N)=O)cncc21 [Example 2-405, (R)-6-((1-amino-4-methylpentan-2-yl)amino)-2-((1-ethyl-1H-pyrazolo[3,4-c]pyridin-4-yl)amino)-5-fluoronicotinamide] |  | < 10 nM | 1000 to 3000 nM |
| COCCOc1cc(Nc2nc(N[C@H](Cc3ccccc3)[C@H](C)N)c(F)cc2C(N)=O)ccn1 [Example 2-427, 6-(((2R,3S)-3-amino-1-phenylbutan-2-yl)amino)-5-fluoro-2-((2-(2-methoxyethoxy)pyridin-4-yl)amino)nicotinamide] |  | 10 to 50 nM | 1000 to 3000 nM |

Second part, the compound after the results:

| IC50 [1] | IC50 [2] | IC50 [3] | SMILES |
| --- | --- | --- | --- |
| 65 to 130 nM | < 10 nM | < 1000 nM | CC[C@@H](Nc1nc(Nc2cnc(C)c(C)c2)c(C(N)=O)cc1F)[C@H](C)N [Example 2-17, 6-(((2S,3R)-2-aminopentan-3-yl)amino)-2-((5,6-dimethylpyridin-3-yl)amino)-5-fluoronicotinamide] |
| 65 to 130 nM | < 10 nM | < 1000 nM | CC[C@@H](Nc1nc(Nc2cnc(C)c(-n3nccn3)c2)c(C(N)=O)cc1F)[C@H](C)N [Example 2-31, 6-(((2S,3R)-2-aminopentan-3-yl)amino)-5-fluoro-2-((6-methyl-5-(2H-1,2,3-triazol-2-yl)pyridin-3-yl)amino)nicotinamide] |
| 130 to 200 nM | 10 to 50 nM | 1000 to 3000 nM | CC[C@H](N)[C@@H](CC)Nc1nc(Nc2cnc(C)c(C)c2)c(C(N)=O)cc1F [Example 2-36, 6-(((3R,4S)-4-aminohexan-3-yl)amino) 2-((5,6-dimethylpyridin-3-yl)amino)-5-fluoronicotinamide] |
| < 65 nM | < 10 nM | < 1000 nM | CC[C@H](N)[C@@H](C)Nc1nc(Nc2ccc3c(cnn3C)c2)c(C(N)=O)cc1F [Example 2-40, 6-(((2R,3S)-3-aminopentan-2-yl)amino)-5-fluoro-2-((1-methyl-1H-indazol-5-yl)amino)nicotinamide] |
|  | < 10 nM | 3000 to 6000 nM | Cc1ncc(Nc2nc(N[C@H](c3ccccc3)[C@H](C)N)c(F)cc2C(N)=O)cc1-n1nccn1 [Example 2-313, 6-(((1R,2S)-2-amino-1-phenylpropyl)amino)-5-fluoro-2-((6-methyl-5-(2H-1,2,3-triazol-2-yl)pyridin-3-yl)amino)nicotinamide] |
|  | 10 to 50 nM | < 1000 nM | COc1ccc([C@@H](Nc2nc(Nc3cnc(C)c(-n4nccn4)c3)c(C(N)=O)cc2F)[C@H](C)N)cc1 [Example 2-338, 6-(((1R,2S)-2-amino-1-(4-methoxyphenyl)propyl)amino)-5-fluoro-2-((6-methyl-5-(2H-1,2,3-triazol-2-yl)pyridin-3-yl)amino)nicotinamide] |
|  | 10 to 50 nM | 1000 to 3000 nM | CSCC[C@@H](Nc1nc(Nc2cnc(C)c(-n3nccn3)c2)c(C(N)=O)cc1F)[C@H](C)N [Example 2-343, 6-(((3R,4S)-4-amino-1-(methylthio)pentan-3-yl)amino)-5-fluoro-2-((6-methyl-5-(2H-1,2,3-triazol-2-yl)pyridin-3-yl)amino)nicotinamide] |
|  | < 10 nM | 1000 to 3000 nM | Cc1ncc(Nc2nc(N[C@@H]([C@H](C)N)[C@H]3CC3(C)C)c(F)cc2C(N)=O)cc1-n1nccn1 [Example 2-380, 6-(((1R,2S)-2-amino-1-((S)-2,2-dimethylcyclopropyl)propyl)amino)-5-fluoro-2-((6-methyl-5-(2H-1,2,3-triazol-2-yl)pyridin-3-yl)amino)nicotinamide] |
